# Measurements taken from ChEMBL document CHEMBL5465560, “Selectivity Literature for EUbOPEN Chemogenomic Library” (2024).
# Assays:
# [1] = target: Tyrosine-protein kinase FRK (Homo sapiens) (UniProt P42685); assay: Selectivity interaction (KinaseProfiler screening (Millipore)) EUB0000601a FRK; conditions: at 3 µM
# [2] = target: Dual specificity mitogen-activated protein kinase kinase 2 (Homo sapiens) (UniProt P36507); assay: Selectivity interaction (KinomeScan (DiscoverX)) EUB0001049a MAP2K2; conditions: at 1 µM
# Dual specificity mitogen-activated protein kinase kinase 2 (Homo sapiens), sequence (P36507 whole entry): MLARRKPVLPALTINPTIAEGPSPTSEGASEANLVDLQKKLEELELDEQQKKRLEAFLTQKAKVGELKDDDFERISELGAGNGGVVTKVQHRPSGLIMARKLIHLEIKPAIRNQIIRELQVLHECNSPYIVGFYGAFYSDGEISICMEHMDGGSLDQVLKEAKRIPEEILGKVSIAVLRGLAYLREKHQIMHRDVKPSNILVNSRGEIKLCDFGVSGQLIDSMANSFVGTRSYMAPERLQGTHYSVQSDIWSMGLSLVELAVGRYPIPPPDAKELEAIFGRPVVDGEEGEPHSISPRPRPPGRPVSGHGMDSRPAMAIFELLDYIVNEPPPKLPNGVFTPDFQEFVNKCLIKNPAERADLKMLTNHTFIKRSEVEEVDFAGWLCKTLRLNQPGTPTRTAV
# [3] = target: Mitogen-activated protein kinase kinase kinase kinase 5 (Homo sapiens) (UniProt Q9Y4K4); assay: Selectivity interaction (Ambit KINOMEscan and KiNATiv profiling in Jurkat cells) EUB0000090b MAP4K5; assay type: cell-based; conditions: at 1 µM
# Mitogen-activated protein kinase kinase kinase kinase 5 (Homo sapiens), sequence (Q9Y4K4 whole entry, looked up): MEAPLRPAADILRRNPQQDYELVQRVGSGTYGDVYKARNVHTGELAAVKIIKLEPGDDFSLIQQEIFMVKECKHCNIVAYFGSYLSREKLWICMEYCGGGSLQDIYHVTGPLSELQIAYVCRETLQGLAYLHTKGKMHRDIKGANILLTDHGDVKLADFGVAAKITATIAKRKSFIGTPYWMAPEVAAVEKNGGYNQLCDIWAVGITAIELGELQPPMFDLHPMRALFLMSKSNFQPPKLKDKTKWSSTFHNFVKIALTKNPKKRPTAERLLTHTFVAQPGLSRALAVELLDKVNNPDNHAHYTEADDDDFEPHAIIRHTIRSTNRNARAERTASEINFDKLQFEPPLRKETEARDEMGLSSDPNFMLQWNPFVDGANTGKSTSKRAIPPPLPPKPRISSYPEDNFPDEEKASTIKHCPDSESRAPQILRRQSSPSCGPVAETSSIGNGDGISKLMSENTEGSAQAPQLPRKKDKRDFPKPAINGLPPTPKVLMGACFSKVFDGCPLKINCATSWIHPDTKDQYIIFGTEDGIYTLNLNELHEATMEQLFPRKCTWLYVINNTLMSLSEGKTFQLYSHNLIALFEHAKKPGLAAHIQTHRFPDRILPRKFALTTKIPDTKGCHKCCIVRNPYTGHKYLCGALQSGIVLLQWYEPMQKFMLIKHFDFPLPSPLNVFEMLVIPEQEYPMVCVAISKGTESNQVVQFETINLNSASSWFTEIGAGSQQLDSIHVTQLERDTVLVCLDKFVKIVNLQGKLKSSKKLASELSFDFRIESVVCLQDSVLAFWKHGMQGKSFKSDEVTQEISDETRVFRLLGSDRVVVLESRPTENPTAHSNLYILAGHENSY
# [4] = target: cAMP-dependent protein kinase catalytic subunit alpha (Homo sapiens, UniProt P17612); assay: Selectivity interaction (KinomeScan (DiscoverX)) EUB0000695a PRKACA; conditions: at 100 nM
# [5] = target: Protein kinase C delta type (Homo sapiens) (UniProt Q05655); assay: Selectivity interaction (KinomeScan (DiscoverX)) EUB0000229b PRKCD; conditions: at 10 µM
# Protein kinase C delta type (Homo sapiens), sequence (Q05655 whole entry, looked up): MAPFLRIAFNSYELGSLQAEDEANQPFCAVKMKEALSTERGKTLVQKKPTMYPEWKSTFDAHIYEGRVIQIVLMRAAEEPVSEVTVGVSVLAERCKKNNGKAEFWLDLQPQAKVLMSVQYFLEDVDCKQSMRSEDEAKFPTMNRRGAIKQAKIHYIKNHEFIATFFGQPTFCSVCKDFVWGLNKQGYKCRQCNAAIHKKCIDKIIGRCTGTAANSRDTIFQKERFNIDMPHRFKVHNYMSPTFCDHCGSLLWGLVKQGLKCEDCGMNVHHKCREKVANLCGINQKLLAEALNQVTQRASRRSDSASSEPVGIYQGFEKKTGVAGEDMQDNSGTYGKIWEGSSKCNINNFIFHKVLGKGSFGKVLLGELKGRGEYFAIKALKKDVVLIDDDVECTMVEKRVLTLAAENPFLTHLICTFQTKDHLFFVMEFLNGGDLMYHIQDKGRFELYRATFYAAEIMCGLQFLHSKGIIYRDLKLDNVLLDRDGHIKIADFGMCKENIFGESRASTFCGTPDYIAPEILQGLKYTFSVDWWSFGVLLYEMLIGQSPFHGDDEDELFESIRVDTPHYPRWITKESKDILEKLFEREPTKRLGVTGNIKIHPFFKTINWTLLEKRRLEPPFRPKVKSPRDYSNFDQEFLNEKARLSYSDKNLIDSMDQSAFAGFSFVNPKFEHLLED
# [6] = target: 5-hydroxytryptamine receptor 1B (Homo sapiens) (UniProt P28222); assay: Selectivity interaction (GPCR panel (PDSP screen)) EUB0001079a HTR1B; conditions: at 10 µM
# 5-hydroxytryptamine receptor 1B (Homo sapiens), sequence (P28222 whole entry): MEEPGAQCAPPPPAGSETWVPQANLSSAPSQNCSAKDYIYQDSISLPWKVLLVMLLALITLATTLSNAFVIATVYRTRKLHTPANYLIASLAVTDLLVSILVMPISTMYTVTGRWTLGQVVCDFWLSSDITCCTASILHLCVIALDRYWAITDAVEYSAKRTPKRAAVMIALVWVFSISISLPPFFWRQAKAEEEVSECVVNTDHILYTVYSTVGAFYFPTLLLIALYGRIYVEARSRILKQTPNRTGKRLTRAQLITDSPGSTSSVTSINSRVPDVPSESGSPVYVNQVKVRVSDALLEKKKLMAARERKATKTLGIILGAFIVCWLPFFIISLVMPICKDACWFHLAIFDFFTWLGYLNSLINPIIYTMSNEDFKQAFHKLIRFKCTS
# [7] = target: T1, Serine/threonine-protein kinase MAK (Homo sapiens) (UniProt P20794); assay: Selectivity interaction (KinomeScan (DiscoverX)) EUB0000045b MAK
# T1 sequence (whole entry): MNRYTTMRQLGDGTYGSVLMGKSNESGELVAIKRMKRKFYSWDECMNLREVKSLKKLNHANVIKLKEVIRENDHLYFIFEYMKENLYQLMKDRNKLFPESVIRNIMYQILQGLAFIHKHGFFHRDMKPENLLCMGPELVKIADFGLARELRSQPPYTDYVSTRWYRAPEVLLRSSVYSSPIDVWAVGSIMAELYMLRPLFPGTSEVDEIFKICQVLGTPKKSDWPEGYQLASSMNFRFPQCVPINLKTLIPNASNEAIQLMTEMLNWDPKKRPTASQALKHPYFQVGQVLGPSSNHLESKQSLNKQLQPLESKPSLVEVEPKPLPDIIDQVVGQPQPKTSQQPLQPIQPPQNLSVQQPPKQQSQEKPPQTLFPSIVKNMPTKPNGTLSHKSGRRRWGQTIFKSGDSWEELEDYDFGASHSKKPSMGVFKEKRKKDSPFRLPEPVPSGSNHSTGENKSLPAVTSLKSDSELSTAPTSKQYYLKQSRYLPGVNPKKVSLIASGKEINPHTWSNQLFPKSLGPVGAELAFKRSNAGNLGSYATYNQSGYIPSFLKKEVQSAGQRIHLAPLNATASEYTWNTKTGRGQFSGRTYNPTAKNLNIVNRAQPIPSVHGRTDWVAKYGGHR
# [8] = target: T2, Serine/threonine-protein kinase RIO1 (Homo sapiens) (UniProt Q9BRS2); assay: Selectivity interaction (KinomeScan (DiscoverX)) EUB0000655a RIOK1; conditions: at 10 µM
# T2 sequence (whole entry): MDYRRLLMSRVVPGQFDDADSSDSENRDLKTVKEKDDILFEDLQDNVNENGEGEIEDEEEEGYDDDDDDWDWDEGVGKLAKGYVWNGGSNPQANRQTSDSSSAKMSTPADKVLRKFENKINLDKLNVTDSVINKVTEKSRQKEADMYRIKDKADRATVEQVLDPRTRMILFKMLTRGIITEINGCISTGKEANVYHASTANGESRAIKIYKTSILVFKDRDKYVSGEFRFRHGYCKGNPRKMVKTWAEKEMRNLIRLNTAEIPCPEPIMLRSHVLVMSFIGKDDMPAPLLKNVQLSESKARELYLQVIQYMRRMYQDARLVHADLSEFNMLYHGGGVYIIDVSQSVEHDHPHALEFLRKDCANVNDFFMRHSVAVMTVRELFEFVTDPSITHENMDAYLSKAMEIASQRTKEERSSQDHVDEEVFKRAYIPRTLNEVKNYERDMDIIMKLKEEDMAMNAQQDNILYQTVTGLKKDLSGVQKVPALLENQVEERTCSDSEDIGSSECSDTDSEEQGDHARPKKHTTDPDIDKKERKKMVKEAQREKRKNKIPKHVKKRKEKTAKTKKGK
# [9] = target: Ephrin type-A receptor 7 (Homo sapiens) (UniProt Q15375); assay: Selectivity interaction (KinomeScan (DiscoverX)) EUB0001619a EPHA7; conditions: at 1 µM
# Ephrin type-A receptor 7 (Homo sapiens), sequence (Q15375 28-998 limits assumed): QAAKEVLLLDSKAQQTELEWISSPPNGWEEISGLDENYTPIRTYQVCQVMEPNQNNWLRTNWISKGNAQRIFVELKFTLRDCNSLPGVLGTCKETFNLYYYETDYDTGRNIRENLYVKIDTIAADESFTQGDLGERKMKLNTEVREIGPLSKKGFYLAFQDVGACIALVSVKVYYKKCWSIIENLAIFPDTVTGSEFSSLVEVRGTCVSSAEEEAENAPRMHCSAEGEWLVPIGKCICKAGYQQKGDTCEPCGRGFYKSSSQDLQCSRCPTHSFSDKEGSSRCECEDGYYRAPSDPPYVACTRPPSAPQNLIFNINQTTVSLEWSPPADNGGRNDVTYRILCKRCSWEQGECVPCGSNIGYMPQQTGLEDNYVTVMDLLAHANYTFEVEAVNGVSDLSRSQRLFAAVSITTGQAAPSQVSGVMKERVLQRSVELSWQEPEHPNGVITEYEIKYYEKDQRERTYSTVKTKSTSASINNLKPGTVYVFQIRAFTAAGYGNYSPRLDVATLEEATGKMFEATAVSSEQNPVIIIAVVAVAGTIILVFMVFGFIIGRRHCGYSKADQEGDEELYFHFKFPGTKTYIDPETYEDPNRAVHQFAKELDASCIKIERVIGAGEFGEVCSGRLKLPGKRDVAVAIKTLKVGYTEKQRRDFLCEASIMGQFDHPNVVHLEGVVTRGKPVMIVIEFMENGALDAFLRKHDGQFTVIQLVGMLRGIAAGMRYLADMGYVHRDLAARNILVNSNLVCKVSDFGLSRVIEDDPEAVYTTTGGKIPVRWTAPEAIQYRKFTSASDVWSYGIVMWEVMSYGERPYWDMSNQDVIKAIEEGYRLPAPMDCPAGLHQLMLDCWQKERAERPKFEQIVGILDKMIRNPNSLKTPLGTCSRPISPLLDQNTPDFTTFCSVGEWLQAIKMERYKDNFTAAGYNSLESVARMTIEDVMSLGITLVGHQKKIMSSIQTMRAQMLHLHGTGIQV
# [10] = target: Dual specificity protein kinase CLK2 (Homo sapiens, UniProt P49760); assay: Selectivity interaction (KinomeScan (DiscoverX)) EUB0000607a CLK2; conditions: at 10 µM
# Dual specificity protein kinase CLK2, sequence (P49760 whole entry, looked up): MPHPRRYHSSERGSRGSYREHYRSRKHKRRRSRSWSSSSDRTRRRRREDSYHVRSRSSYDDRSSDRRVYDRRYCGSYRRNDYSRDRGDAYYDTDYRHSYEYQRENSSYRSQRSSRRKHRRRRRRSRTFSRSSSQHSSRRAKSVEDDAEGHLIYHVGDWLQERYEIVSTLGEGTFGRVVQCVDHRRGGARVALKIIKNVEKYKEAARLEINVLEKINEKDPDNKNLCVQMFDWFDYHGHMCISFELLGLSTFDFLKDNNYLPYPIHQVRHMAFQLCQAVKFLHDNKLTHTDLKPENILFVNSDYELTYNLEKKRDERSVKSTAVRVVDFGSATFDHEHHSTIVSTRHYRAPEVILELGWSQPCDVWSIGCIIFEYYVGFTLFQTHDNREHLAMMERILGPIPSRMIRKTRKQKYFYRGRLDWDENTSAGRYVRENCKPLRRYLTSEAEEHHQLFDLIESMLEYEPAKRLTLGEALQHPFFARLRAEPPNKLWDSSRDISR
# [11] = target: MAP kinase-activated protein kinase 3 (Homo sapiens) (UniProt Q16644); assay: Selectivity interaction (Kinase panel (KiNativ target engagement assay in Jurkat cells)) EUB0001635a MAPKAPK3; assay type: cell-based; conditions: Selectivity number of off-targets 0.0, Selectivity number of targets 233.0, Source Knowledge https://www.sciencedirect.com/science/article/pii/S2451945619300674?via%3Dihub, at 1 µM
# MAP kinase-activated protein kinase 3 (Homo sapiens), sequence (Q16644 whole entry, looked up): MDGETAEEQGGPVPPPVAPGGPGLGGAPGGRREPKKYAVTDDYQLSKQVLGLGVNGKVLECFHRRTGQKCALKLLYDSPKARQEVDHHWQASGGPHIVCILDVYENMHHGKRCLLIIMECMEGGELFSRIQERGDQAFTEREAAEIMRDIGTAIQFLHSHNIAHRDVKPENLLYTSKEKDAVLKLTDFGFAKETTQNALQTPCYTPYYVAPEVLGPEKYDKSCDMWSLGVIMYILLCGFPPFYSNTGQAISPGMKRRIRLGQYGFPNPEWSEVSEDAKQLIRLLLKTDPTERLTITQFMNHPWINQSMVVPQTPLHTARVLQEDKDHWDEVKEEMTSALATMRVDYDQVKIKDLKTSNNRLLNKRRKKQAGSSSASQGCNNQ
# [12] = target: Protein kinase C delta type (Homo sapiens) (UniProt Q05655); assay: Selectivity interaction (KinomeScan (DiscoverX)) EUB0000666a PRKCD; conditions: at 10 µM
# Tyrosine-protein kinase FRK (Homo sapiens), sequence (P42685 whole entry): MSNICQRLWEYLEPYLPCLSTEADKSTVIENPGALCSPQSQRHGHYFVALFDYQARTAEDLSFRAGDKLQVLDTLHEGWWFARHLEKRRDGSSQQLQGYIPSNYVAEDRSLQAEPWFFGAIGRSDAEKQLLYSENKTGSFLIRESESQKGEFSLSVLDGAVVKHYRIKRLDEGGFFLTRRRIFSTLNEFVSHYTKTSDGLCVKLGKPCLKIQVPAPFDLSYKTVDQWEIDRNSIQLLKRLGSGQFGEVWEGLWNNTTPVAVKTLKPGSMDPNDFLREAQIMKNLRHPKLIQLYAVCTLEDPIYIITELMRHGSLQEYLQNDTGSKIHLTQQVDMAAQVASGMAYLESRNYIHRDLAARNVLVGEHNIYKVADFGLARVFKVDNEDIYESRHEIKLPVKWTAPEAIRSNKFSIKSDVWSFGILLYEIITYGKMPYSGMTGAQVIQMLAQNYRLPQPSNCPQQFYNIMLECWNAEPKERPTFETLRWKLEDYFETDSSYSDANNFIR
structure (smiles),measurement,setting,value
CCc1cc(Nc2nccc(-c3c(-c4ccc(OC)c(C(=O)Nc5c(F)cccc5F)c4)nc4ccccn34)n2)c(OC)cc1N1CCC(N2CCN(S(C)(=O)=O)CC2)CC1,% of inhibition,[1],97%
COc1cc(Nc2nc(C)cc(-c3cnn4nc(OC)ccc34)n2)cc(C(F)(F)F)c1,% of control,[2],77%
CN(C)C/C=C/C(=O)Nc1ccc(C(=O)N2CCCC(Nc3ncc(Cl)c(-c4c[nH]c5ccccc45)n3)C2)cc1 (stereo not drawn),% of control,[3],81%
Cc1cc(F)c(C(=O)Nc2cccc(-c3nncn3C(C)C)n2)cc1-n1cnc(C2CC2)c1,% of control,[4],99%
COc1cc(N(C)c2ccnc3ccc(C(F)(F)F)cc23)cc(OC)c1OC,% binding,[5],95%
Nc1cnc(N2CCc3cc(S(=O)(=O)Nc4c(F)cc(Cl)cc4F)cc(N4CCCC4=O)c32)nc1 [TP-020n],% of inhibition,[6],-3.82%
C=CC(=O)Nc1cc(-n2c(=O)ccc3cnc4ccc(-c5ccc(NS(C)(=O)=O)cc5)cc4c32)ccc1C,% of control,[7]; at 1 µM,70%
same,% of control,[7]; at 10 µM,100%
CN(C)CCOc1ccc(-c2nc(-c3ccncc3)c(-c3ccc4c(c3)CC/C4=N\O)[nH]2)cc1,% of control,[8],97%
N#Cc1cccc(-c2c[nH]c3ncnc(N4CCOCC4)c23)c1,% of control,[9],100%
CNC(=O)Nc1ccc(-c2nc(N3CC4CCC(C3)O4)c3cnn(C4CCC5(CC4)OCCO5)c3n2)cc1,% of control,[10],98%
C=CC(=O)Nc1ccc(C(=O)Nc2[nH]nc3c2CN(C(=O)N[C@H](CN(C)C)c2ccccc2)C3(C)C)cc1,% of engagement,[11],-9.9%
O=C(NOC[C@H](O)CO)c1ccc(F)c(F)c1Nc1ccc(I)cc1F,% of control,[12],100%
